Data on two substances can be found in patent US12059407B2, “Compositions and methods for delivery of macromolecules” (The Regents of the University of California, priority 2017, dated 2024).

The term CC50 denotes the concentration at which the toxic effect on the cells reaches its halfway point. Read a high CC50 as lower toxicity to the cells.

Data set [1] deals with HEK293T cells. The experiment in a line: Model study with Saporin: protein delivery. Format: cell-based. The settings on record: HEK293T cells treated with only Saporin or only compound 1.
Data set [2] deals with HEK293T cells. The experiment in a line: Cytotoxicity assay in HEK293T cells. The format is cell-based.

On to Saporin, for which, in data set [1], the “cell death, single agent only” value is “no cell death”.

Substance Triton X registered a CC50 in data set [2] of 59 µM. In other words, the double-digit micromolar range.
